In ChEMBL document CHEMBL6127062, “Targeted degradation of METTL3 against acute myeloid leukemia and gastric cancer” (Eur J Med Chem, 2024):
Calls of active or inactive are those of the source. The rule behind the calls is not given here.

Experiments:
[1] = target: T1, von Hippel-Lindau disease tumor suppressor/N(6)-adenosine-methyltransferase catalytic subunit METTL3 (Homo sapiens, UniProt P40337+Q86U44); assay: PROTAC activity at VHL/METTL3 in human MOLM-13 cells assessed as induction of METTL3 degradation at 1 uM by Western blot analysis relative to control; format: cell-based
Target sequence in this assay (Q86U44 2-580 partner limits assumed): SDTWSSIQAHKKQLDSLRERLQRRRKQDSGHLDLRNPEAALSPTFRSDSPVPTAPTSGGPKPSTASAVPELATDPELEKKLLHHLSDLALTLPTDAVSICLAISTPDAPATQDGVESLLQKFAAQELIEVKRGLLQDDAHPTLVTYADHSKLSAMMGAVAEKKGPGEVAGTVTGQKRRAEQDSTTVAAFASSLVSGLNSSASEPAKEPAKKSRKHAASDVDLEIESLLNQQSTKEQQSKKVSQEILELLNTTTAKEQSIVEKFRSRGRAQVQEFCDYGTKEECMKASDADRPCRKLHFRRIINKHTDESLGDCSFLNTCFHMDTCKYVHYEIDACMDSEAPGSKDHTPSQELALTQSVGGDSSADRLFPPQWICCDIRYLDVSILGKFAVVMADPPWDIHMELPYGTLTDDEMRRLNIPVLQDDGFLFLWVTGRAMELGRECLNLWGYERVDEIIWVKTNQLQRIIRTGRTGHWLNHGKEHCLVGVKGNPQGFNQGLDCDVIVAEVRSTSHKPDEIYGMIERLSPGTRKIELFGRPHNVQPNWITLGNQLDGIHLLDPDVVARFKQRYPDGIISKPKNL
Target sequence in this assay (P40337 whole entry): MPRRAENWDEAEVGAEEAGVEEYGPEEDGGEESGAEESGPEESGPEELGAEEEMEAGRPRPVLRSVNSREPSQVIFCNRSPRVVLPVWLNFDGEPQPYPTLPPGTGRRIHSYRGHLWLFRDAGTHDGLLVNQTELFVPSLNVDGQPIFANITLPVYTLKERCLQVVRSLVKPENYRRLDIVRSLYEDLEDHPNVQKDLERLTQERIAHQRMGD

[2] = target: T1, von Hippel-Lindau disease tumor suppressor/N(6)-adenosine-methyltransferase catalytic subunit METTL3; assay: PROTAC activity at VHL/METTL3 in human MOLM-13 cells assessed as induction of METTL3 degradation at 10 uM by Western blot analysis relative to control; format: cell-based
Target sequence in this assay (Q86U44 2-580 partner limits assumed): as the sequence (Q86U44 2-580 partner limits assumed) above
Target sequence in this assay (P40337 whole entry): as the sequence (P40337 whole entry) above

METTL3/METTL14 = METTL3/METTL14 (Homo sapiens, UniProt Q86U44); assay: Inhibition of METTL3/METTL14 (unknown origin) using Oligo ssRNA as substrate incubated for 20 min by Hotspot RNA methyltransferase assay; format: protein-complex assay
[3] = target: T1, von Hippel-Lindau disease tumor suppressor/N(6)-adenosine-methyltransferase catalytic subunit METTL3; assay: PROTAC activity at VHL/METTL3 in human MOLM-13 cells assessed as induction of METTL3 degradation incubated for 24 hrs by Western blot analysis; format: cell-based
[4] = target: T1, von Hippel-Lindau disease tumor suppressor/N(6)-adenosine-methyltransferase catalytic subunit METTL3; assay: PROTAC activity at VHL/METTL3 in human MOLM-13 cells assessed as induction of METTL3 degradation at 1 uM incubated for 4 hrs by Western blot analysis relative to control; format: cell-based
Target sequence in this assay (Q86U44 2-580 partner limits assumed): as the sequence (Q86U44 2-580 partner limits assumed) above
Target sequence in this assay (P40337 whole entry): as the sequence (P40337 whole entry) above

[5] = target: T1, von Hippel-Lindau disease tumor suppressor/N(6)-adenosine-methyltransferase catalytic subunit METTL3; assay: PROTAC activity at VHL/METTL3 in human MOLM-13 cells assessed as induction of METTL3 degradation at 1 uM incubated for 24 hrs by Western blot analysis relative to control; format: cell-based
Target sequence in this assay (Q86U44 2-580 partner limits assumed): as the sequence (Q86U44 2-580 partner limits assumed) above
Target sequence in this assay (P40337 whole entry): as the sequence (P40337 whole entry) above

[6] = target: T1, von Hippel-Lindau disease tumor suppressor/N(6)-adenosine-methyltransferase catalytic subunit METTL3; assay: PROTAC activity at VHL/METTL3 in human MOLM-13 cells assessed as induction of METTL3 degradation incubated for 4 to 24 hrs by Western blot analysis relative to control; format: cell-based; details: time 4-24 hrs
Target sequence in this assay (Q86U44 2-580 partner limits assumed): as the sequence (Q86U44 2-580 partner limits assumed) above
Target sequence in this assay (P40337 whole entry): as the sequence (P40337 whole entry) above

[7] = target: T1, von Hippel-Lindau disease tumor suppressor/N(6)-adenosine-methyltransferase catalytic subunit METTL3; assay: PROTAC activity at VHL/METTL3 in human MOLM-13 cells assessed as induction of METTL3 degradation at 1 uM by Western blot analysis; format: cell-based; details: time 4-24 hrs, TDE = time-dependent effect
Target sequence in this assay (Q86U44 2-580 partner limits assumed): as the sequence (Q86U44 2-580 partner limits assumed) above
Target sequence in this assay (P40337 whole entry): as the sequence (P40337 whole entry) above

[8] = target: N6-adenosine-methyltransferase catalytic subunit (Homo sapiens) (UniProt Q86U44); assay: Induction of thermal stabilization of endogenous METTL3 in human MOLM-13 cells incubated for 1 hrs by cellular thermal shift assay; format: cell-based
[9] = target: N6-adenosine-methyltransferase catalytic subunit (Homo sapiens) (UniProt Q86U44); assay: Induction of thermal stabilization of METTL3 in human MOLM-13 cells at 52.4 to 54.8 degreeC incubated for 1 hrs by cellular thermal shift assay; format: cell-based
HeLa = assay: Binding affinity to METTL3/GFP-fused BRD4 (unknown origin) expressed in HeLa cells presence of MZ1 by Western blot analysis; format: cell-based; details: Homo sapiens
[10] = target: T1, von Hippel-Lindau disease tumor suppressor/N(6)-adenosine-methyltransferase catalytic subunit METTL3; assay: PROTAC activity at VHL/METTL3 (unknown origin) expressed in HeLa cells assessed as BRD4-eGFP_mCherry level incubated for 4 hrs in presence of MZ1 by flow cytometry analysis; format: cell-based
[11] = target: T1, von Hippel-Lindau disease tumor suppressor/N(6)-adenosine-methyltransferase catalytic subunit METTL3; assay: PROTAC activity at VHL/METTL3 (unknown origin) expressed in HeLa cells incubated for 4 hrs presence of MZ1 by flow cytometry analysis; format: cell-based
[12] = target: T1, von Hippel-Lindau disease tumor suppressor/N(6)-adenosine-methyltransferase catalytic subunit METTL3; assay: PROTAC activity at VHL/METTL3 in human MOLM-13 cells assessed as induction of METTL3 degradation at 10 uM preincubated with UZH2 for 2 hrs followed by compound addition and measured after 24 hrs by Western blot analysis; format: cell-based
[13] = target: T1, von Hippel-Lindau disease tumor suppressor/N(6)-adenosine-methyltransferase catalytic subunit METTL3; assay: PROTAC activity at VHL/METTL3 in human MOLM-13 cells assessed as induction of METTL3 degradation at 10 uM preincubated with VH032 for 2 hrs followed by compound addition and measured after 24 hrs by Western blot analysis; format: cell-based
[14] = target: T1, von Hippel-Lindau disease tumor suppressor/N(6)-adenosine-methyltransferase catalytic subunit METTL3; assay: (§1) Binding affinity to N-Luc tagged METTL3 (unknown origin)/Halo-tagged VHL (unknown origin) expressed in HEK293T cells assessed as ternary complex formation by measuring increase in BRET ratio at 1 uM preincubated with epoxomicin for 2 hrs followed by compound addition and measured after 4.5 hrs by NanoBRET assay; format: cell-based
[15] = target: T1, von Hippel-Lindau disease tumor suppressor/N(6)-adenosine-methyltransferase catalytic subunit METTL3; assay: as §1, with “decrease” for “increase”, “30” for “1”; format: cell-based
[16] = target: T1, von Hippel-Lindau disease tumor suppressor/N(6)-adenosine-methyltransferase catalytic subunit METTL3; assay: Binding affinity to N-Luc tagged METTL3 (unknown origin)/Halo-tagged VHL (unknown origin) HA-Ub expressed in HEK293T cells assessed as ternary complex formation by measuring increase ubiquitination level at 1 uM preincubated with epoxomicin for 2.5 hrs followed by compound addition and measured after 6 hrs by NanoBRET assay; format: cell-based
[17] = target: T1, von Hippel-Lindau disease tumor suppressor/N(6)-adenosine-methyltransferase catalytic subunit METTL3; assay: PROTAC activity at VHL/METTL3 in HEK293T cells assessed as induction of METTL3 degradation at 1 uM preincubated with MLN4924 for 2.5 hrs followed by compound addition and measured after 6 hrs by Western blot analysis; format: cell-based
[18] = target: T1, von Hippel-Lindau disease tumor suppressor/N(6)-adenosine-methyltransferase catalytic subunit METTL3; assay: PROTAC activity at VHL/METTL3 in HEK293T cells assessed as induction of METTL3 degradation at 1 uM preincubated with epoxomicin for 2.5 hrs followed by compound addition and measured after 6 hrs by Western blot analysis; format: cell-based
[19] = target: T1, von Hippel-Lindau disease tumor suppressor/N(6)-adenosine-methyltransferase catalytic subunit METTL3; assay: PROTAC activity at VHL/METTL3 in HEK293T cells assessed as induction of METTL3 degradation at 1 uM preincubated with MG132 for 2.5 hrs followed by compound addition and measured after 6 hrs by Western blot analysis; format: cell-based
[20] = target: T1, von Hippel-Lindau disease tumor suppressor/N(6)-adenosine-methyltransferase catalytic subunit METTL3; assay: PROTAC activity at VHL/METTL3 in HEK293T cells assessed as induction of METTL3 degradation at 1 uM preincubated with 3MA autophagy inhibitor for 2.5 hrs followed by compound addition and measured after 6 hrs by Western blot analysis; format: cell-based
MOLM-13 [21] = assay: Antiproliferative activity against human MOLM-13 cells assessed as inhibition of cell proliferation measured after 72 hrs by Celltiter Glo luminescent cell viability assay; format: functional, cell-based; details: MOLM-13, 72 h
MOLM-14 = assay: Antiproliferative activity against human MOLM-14 cells assessed as cell growth inhibition after 72 hrs by Celltiter Glo luminescent cell viability assay; format: functional, cell-based
HL-60 = assay: Antiproliferative activity against human HL-60 cells assessed as cell growth inhibition after 72 hrs by Celltiter Glo luminescent cell viability assay; format: functional, cell-based
MOLM-13 [22] = assay: Downregulation of C-Myc protein level expression in human MOLM-13 cells incubated for 24 hrs by Western blot analysis; format: functional, cell-based
MOLM-13 [23] = assay: Induction of apoptosis in human MOLM-13 cells at 5 uM incubated for 48 hrs by Annexin V/PI staining based flow cytometry analysis; format: functional, cell-based
GES1 [24] = assay: Anticancer activity against human GES1 cells assessed as inhibition of cell growth incubated for 72 hrs by cell viability assay; format: functional, cell-based; details: GES1, 72 h
AGS = assay: Anticancer activity against human AGS cells assessed as inhibition of cell growth incubated for 72 hrs by cell viability assay; format: functional, cell-based
[25] = Anticancer activity against human SNU484 cells assessed as inhibition of cell growth incubated for 72 hrs by cell viability assay; format: functional, cell-based; details: SNU-484, 72 h
GES1 [26] = assay: Cytotoxicity against human GES1 cells assessed as reduction in cell viability incubated for 24 hrs; format: toxicity, cell-based; details: ges1, 24 h
[27] = target: T1, von Hippel-Lindau disease tumor suppressor/N(6)-adenosine-methyltransferase catalytic subunit METTL3; assay: PROTAC activity at VHL/METTL3 expressed in human AGS cells assessed as reduction of cytoplasmic METTL3 protein level at 1 uM incubated for 24 hrs by Western blot analysis; format: cell-based
[28] = target: T1, von Hippel-Lindau disease tumor suppressor/N(6)-adenosine-methyltransferase catalytic subunit METTL3; assay: PROTAC activity at VHL/METTL3 expressed in human SNU-484 cells assessed as reduction of cytoplasmic METTL3 protein level at 1 uM incubated for 24 hrs by Western blot analysis; format: cell-based
[29] = target: T1, von Hippel-Lindau disease tumor suppressor/N(6)-adenosine-methyltransferase catalytic subunit METTL3; assay: PROTAC activity at VHL/METTL3 expressed in human AGS cells assessed as reduction of METTL3 protein level in nucleus fraction at 1 uM incubated for 24 hrs by Western blot analysis; format: cell-based
[30] = target: T1, von Hippel-Lindau disease tumor suppressor/N(6)-adenosine-methyltransferase catalytic subunit METTL3; assay: PROTAC activity at VHL/METTL3 expressed in human SNU-484 cells assessed as reduction of METTL3 protein level in nucleus fraction at 1 uM incubated for 24 hrs by Western blot analysis; format: cell-based
Gastric cancer organoid [31] = assay: Anti-proliferative activity against patient derived GA352T organoids assessed as suppression of tumor growth incubated for 5 days by Celltiter-glo viability assay; format: functional, tissue-based; details: Homo sapiens; Neoplasm; time 5.0 day
Gastric cancer organoid [32] = assay: Anti-proliferative activity against patient derived GA215T organoids assessed as suppression of tumor growth incubated for 5 days by Celltiter-glo viability assay; format: functional, tissue-based; details: Homo sapiens; Neoplasm; time 5.0 day
[33] = target: T2, Protein cereblon/N(6)-adenosine-methyltransferase catalytic subunit METTL3 (Homo sapiens) (UniProt Q96SW2+Q86U44); assay: PROTAC activity at CRBN/METTL3 in human MOLM-13 cells assessed as induction of METTL3 degradation at 1 uM by Western blot analysis relative to control; format: cell-based
[34] = target: T2, Protein cereblon/N(6)-adenosine-methyltransferase catalytic subunit METTL3 (Homo sapiens); assay: PROTAC activity at CRBN/METTL3 in human MOLM-13 cells assessed as induction of METTL3 degradation at 10 uM by Western blot analysis relative to control; format: cell-based

T2 sequence (Q86U44 whole entry, looked up): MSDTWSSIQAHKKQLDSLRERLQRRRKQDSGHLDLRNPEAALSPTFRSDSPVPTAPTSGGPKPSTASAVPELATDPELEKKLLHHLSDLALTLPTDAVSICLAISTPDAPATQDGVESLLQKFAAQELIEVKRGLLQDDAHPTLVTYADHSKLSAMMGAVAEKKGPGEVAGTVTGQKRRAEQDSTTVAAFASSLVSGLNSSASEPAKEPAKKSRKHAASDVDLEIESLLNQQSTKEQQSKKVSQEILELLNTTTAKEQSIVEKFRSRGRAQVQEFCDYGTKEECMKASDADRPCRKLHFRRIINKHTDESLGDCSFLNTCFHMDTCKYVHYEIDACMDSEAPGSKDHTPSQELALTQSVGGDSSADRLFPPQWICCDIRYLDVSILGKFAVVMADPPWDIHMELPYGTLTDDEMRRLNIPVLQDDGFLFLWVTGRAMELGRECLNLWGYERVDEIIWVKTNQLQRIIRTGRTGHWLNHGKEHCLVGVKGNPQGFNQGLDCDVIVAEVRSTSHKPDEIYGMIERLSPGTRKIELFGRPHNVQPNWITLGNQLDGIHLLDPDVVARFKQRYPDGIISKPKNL
T2 sequence (Q96SW2 whole entry, looked up): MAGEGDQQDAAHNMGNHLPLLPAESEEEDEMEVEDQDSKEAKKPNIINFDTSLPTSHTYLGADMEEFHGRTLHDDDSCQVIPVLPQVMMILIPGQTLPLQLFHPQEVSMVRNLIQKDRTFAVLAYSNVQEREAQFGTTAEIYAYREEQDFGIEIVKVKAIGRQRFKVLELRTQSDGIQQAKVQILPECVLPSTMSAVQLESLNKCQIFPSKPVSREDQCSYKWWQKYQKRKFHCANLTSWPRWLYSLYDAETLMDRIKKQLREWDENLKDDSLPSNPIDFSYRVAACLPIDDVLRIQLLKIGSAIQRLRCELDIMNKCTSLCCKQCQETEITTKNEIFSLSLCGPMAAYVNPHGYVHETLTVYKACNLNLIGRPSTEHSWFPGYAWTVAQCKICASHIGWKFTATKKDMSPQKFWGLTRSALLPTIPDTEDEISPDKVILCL
N6-adenosine-methyltransferase catalytic subunit (Homo sapiens), sequence (Q86U44 whole entry, the tested form may be a part): as the sequence (Q86U44 whole entry, looked up) above
METTL3/METTL14, sequence (Q86U44 whole entry): as the sequence (Q86U44 whole entry, looked up) above
METTL3/METTL14, sequence (Q9HCE5 whole entry, further chain): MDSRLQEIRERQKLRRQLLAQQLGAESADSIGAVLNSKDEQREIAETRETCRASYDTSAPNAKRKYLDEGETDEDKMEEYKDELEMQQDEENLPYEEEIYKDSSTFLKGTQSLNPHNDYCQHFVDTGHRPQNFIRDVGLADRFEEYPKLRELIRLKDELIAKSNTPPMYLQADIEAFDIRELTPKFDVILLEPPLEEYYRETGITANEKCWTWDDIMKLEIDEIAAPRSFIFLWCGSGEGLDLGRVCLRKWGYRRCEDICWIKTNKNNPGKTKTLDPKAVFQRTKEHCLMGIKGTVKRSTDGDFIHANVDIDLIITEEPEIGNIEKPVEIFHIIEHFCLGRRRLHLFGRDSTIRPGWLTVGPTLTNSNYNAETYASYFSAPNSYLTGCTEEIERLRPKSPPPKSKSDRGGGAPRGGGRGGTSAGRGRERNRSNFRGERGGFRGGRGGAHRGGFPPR

Cc1ncsc1-c1ccc(CNC(=O)[C@@H]2C[C@@H](O)CN2C(=O)[C@@H](NC(=O)CCCCCCCNc2cc(N3CCC4(CC3)CN(c3cc(F)c(CN5CCC(C)(C)CC5)cc3F)CC(=O)N4)ncn2)C(C)(C)C)cc1
Activity [1]: 84% | Activity [2]: 50% | IC50 (METTL3/METTL14): 0.341 µM | Activity [3]: Dose-Dependent Effect | DC50 [3]: 0.22 µM | Activity [4]: > 50% | Activity [5]: 90% | Activity [6]: Dose-Dependent Effect | Activity [7]: Tde | Activity [8]: Dose-Dependent Effect | Activity [9]: Active | Activity (HeLa): Active | Activity [10]: inactive | Activity [11]: Active | Activity [12]: inactive | Activity [13]: Active | Activity [14]: Active | Activity [15]: inactive | Activity [16]: Active | Activity [17]: inactive | Activity [18]: inactive | Activity [19]: inactive | Activity [20]: Active | IC50 (MOLM-13 [21]): 1.04 µM | Activity (MOLM-14): Active | Activity (HL-60): Active | Activity (MOLM-13 [22]): Dose-Dependent Effect | Activity (MOLM-13 [23]): Active | IC50 (GES1 [24]): > 50 µM | IC50 (AGS): 1.48 µM | IC50 [25]: 3 µM | Activity (GES1 [26]): Toxic | Activity [27]: Active | Activity [28]: Active | Activity [29]: Active | Activity [30]: Active | Activity (Gastric cancer organoid [31]): Active | Activity (Gastric cancer organoid [32]): Active

Cc1ncsc1-c1ccc(CNC(=O)[C@@H]2C[C@@H](O)CN2C(=O)[C@@H](NC(=O)CCCCCCCCCCNc2cc(N3CCC4(CC3)CN(c3cc(F)c(CN5CCC(C)(C)CC5)cc3F)CC(=O)N4)ncn2)C(C)(C)C)cc1
Activity [1]: 34% | Activity [2]: 55%

CC1(C)CCN(Cc2cc(F)c(N3CC(=O)NC4(CCN(c5cc(NCCCCCCCC(=O)N6CCN(c7ccc8c(c7)C(=O)N(C7CCC(=O)NC7=O)C8=O)CC6)ncn5)CC4)C3)cc2F)CC1 (centres undefined)
Activity [33]: 33% | Activity [34]: 29%

CC1(C)CCN(Cc2cc(F)c(N3CC(=O)NC4(CCN(c5cc(NCCCCCC(=O)N6CCN(c7ccc8c(c7)C(=O)N(C7CCC(=O)NC7=O)C8=O)CC6)ncn5)CC4)C3)cc2F)CC1 (centres undefined)
Activity [33]: 32% | Activity [34]: 35%
